One block for each compound: values may come before it.
Columns and labels:
[1] = Oral bioavailability in dog; format: ADME, organism-based, Canis lupus familiaris; conditions: in vivo
[2] = Oral bioavailability in mouse; format: ADME, organism-based; conditions: in vivo
[3] = Oral bioavailability in rat; format: ADME, organism-based; conditions: in vivo
[4] = target: Apoptosis regulator Bcl-2 (Homo sapiens, UniProt P10415); assay: Binding affinity to BCl2
[5] = Inhibition of FTase
[6] = Induction of apoptosis in human CLL cells; format: functional, cell-based
[7] = Aqueous solubility of the compound; format: physicochemical; conditions: aqueous medium
[8] = Selectivity ratio of IC50 for cathepsin to IC50 for proteasome
[9] = Inhibition of proteasome; format: subcellular
Cathepsin G [10] = target: T1, Cathepsin G (Homo sapiens, UniProt P08311); assay: Inhibition of cathepsin G
T1 sequence (P08311 whole entry): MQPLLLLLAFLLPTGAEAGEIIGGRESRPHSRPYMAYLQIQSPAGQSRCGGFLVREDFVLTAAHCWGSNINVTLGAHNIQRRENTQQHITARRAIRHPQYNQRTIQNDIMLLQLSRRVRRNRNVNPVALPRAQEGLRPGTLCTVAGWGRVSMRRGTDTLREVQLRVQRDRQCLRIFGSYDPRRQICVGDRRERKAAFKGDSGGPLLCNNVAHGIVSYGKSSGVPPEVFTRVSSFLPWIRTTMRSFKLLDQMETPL

Cathepsin G [11] = target: T1, Cathepsin G; assay: Inhibition of cathepsin G in human MOLT4 cells; format: cell-based, MOLT-4

Sequence of Apoptosis regulator Bcl-2 (P10415 whole entry): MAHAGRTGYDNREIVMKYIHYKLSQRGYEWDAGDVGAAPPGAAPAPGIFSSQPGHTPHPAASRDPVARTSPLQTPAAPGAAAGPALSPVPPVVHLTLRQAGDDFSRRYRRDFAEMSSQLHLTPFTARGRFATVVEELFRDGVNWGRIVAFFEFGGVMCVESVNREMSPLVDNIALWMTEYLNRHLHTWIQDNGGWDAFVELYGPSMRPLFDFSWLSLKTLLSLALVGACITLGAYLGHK

- bioavailability [1]: 39%
- bioavailability [2]: 17%
- bioavailability [3]: 21%
SMILES: COC[C@H](NC(=O)c1cnc(C)s1)C(=O)N[C@@H](COC)C(=O)N[C@@H](Cc1ccccc1)C(=O)[C@]1(C)CO1

- Ki [4]: 62 nM
SMILES: CN(C)CC[C@H](CSc1ccccc1)Nc1ccc(S(=O)(=O)NC(=O)c2ccc(N3CCC(C)(C)CC3)cc2)cc1[N+](=O)[O-]

SMILES: Cn1cncc1[C@](N)(c1ccc(Cl)cc1)c1ccc2c(c1)c(-c1cccc(Cl)c1)cc(=O)n2C [(S)-TIPIFARNIB]
- EC50 [5]: 1.8 nM

- EC50 [6]: 4.5 nM
- solubility [7]: < 1 µg/mL
SMILES: CN(C)CC[C@H](CSc1ccccc1)Nc1ccc(S(=O)(=O)NC(=O)c2ccc(N3CCN(Cc4ccccc4-c4ccc(Cl)cc4)CC3)cc2)cc1[N+](=O)[O-] [ABT 737]

- Ratio IC50 [8]: 200000
- IC50 [9]: 0.6 nM
SMILES: CC(C)C[C@H](NC(=O)[C@H](Cc1ccccc1)NC(=O)c1cnccn1)B(O)O [BORTEZOMIB]

- IC50 (Cathepsin G [10]): 13.7 nM
- EC50 (Cathepsin G [11]): 13.5 nM
SMILES: CC(C)C[C@H](NC(=O)[C@@H](NC(=O)c1cccc(-c2ccccc2)n1)[C@@H](C)O)B(O)O [DELANZOMIB]

SMILES: Cn1cncc1[C@@](N)(c1ccc(Cl)cc1)c1ccc2c(c1)c(-c1cccc(Cl)c1)cc(=O)n2C [TIPIFARNIB]
- IC50 [5]: 0.6 nM
